Laboratory results as given in patent publication US20050288503A1, “Novel compounds” (priority 2002, published 2005).

Molecular target: CSBP/p38 (Homo sapiens, UniProt Q16539)
Experiment: CSBP/p38 Kinase Assay (32P transfer from ATP to EGFR-derived T669 peptide)
Assay type: biochemical
Details: for IC50: yeast-expressed, activated and purified p38, 0.17 mM ATP, T669 peptide, read-out: positive inhibitory activity in the CSBP/p38 kinase assay at; for activity on retesting at a higher concentration: retested at 67 uM

Chain of CSBP/p38 (Q16539 whole entry): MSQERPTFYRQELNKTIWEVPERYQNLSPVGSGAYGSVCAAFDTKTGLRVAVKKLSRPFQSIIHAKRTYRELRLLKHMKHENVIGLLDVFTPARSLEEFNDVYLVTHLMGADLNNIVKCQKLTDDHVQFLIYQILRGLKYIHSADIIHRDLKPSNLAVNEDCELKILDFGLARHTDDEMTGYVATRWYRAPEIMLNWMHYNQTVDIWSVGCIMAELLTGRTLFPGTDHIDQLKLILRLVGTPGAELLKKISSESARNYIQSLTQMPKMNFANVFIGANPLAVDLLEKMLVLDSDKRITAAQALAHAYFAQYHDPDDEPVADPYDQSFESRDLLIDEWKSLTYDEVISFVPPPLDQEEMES

IC50	activity on retesting at a higher concentration	SMILES
< 50 µM		Cn1cnc2c(Nc3c(F)cccc3F)nc(-c3ccccc3F)nc21 [Example 17, (2,6-difluoro-phenyl)-[2-(2-fluoro-phenyl)-9-methyl-9H-purin-6-yl]-amine]
< 50 µM		Cn1cnc2c(Nc3c(F)cccc3F)nc(-c3ccccc3Cl)nc21 [Example 11, [2-(2-chloro-phenyl)-9-methyl-9H-purin-6-yl]-(2,6-difluoro-phenyl)-amine]
< 50 µM		CN(C)CCn1cnc2c(Nc3c(F)cccc3F)nc(-c3ccccc3F)nc21 [Example 22, (2,6-difluoro-phenyl)-[9-(2-dimethylamino-ethyl)-2-(2-fluoro-phenyl)-9H-purin-6-yl]-amine]

Continued, compound first:

SMILES	IC50	activity on retesting at a higher concentration
Fc1ccccc1-c1nc(Nc2c(F)cccc2F)c2ncn(Cc3ccccc3)c2n1 [Example 23]	< 50 µM	
Cn1cnc2c(Nc3c(F)cccc3F)nc(-c3ccc(F)cc3F)nc21 [Example 19, (2,6-difluoro-phenyl)-[2-(2,4-difluoro-phenyl)-9-methyl-9H-purin-6 yl]-amine]	< 50 µM	
Cn1cnc2c(N(C(N)=O)c3c(F)cccc3F)nc(-c3cc(F)cc(F)c3)nc21 [Example 46, 1-(2,6-difluoro-phenyl)-1-[2-(3,5-difluoro-phenyl)-9-methyl-9H-purin-6-yl]-urea]		active
Cc1ccc(-c2nc(Nc3c(F)cccc3F)c3ncn(C)c3n2)cc1 [Example 14, (2,6-difluoro-phenyl)-(9-methyl-2-p-tolyl-9H-purin-6-yl)-amine]	< 50 µM	
Cn1cnc2c(N(C(N)=O)c3c(F)cccc3F)nc(-c3ccc(Cl)cc3)nc21 [Example 35, 1-[2-(4-chloro-phenyl)-9-methyl-9H-purin-6-yl]-1-(2,6-difluoro-phenyl)-urea]		active
